Reference: US5618791A, “Memory enhancing peptides” (Shanghai Institute of Biochemistry, priority 1992, dated 1997)
Square brackets hold non-standard residues; d marks the D form. Ends that are not written are not given here. Peptide text beside a SMILES is read from it. pGlu = O=C1CC[C@@H](C(=O)O)N1; Hme = not defined here

What was measured:
adult rats [1] = assay: Passive avoidance response of adult rats, step-through one trial learning test in a shuttle box; format: in vivo
Procedure: (§1) Biological activities of MEPs of the invention are confirmed by bioassay. Blood pressure measurements and urine output measurements were performed on adult rats after intravenous administration of MEPs under ether anesthesia. Passive avoidance behavior of adult rats was carried out in a step-through one trial learning test in a shuttle box, and brightness discrimination tests were performed in a radiant Y maze. Rats neonatally administered with MEPs of the invention were trained during an immature period and subsequently tested as adults.
(§2) Memory enhancing responses were assessed by two kinds of behavioral records, i.e., passive avoidance response of adult rats in a shuttle box and the performance in a radiant Y maze in the acquisition and retention of brightness discrimination of rats neonatally administered. The results are set out in Table I. All MEPs of the invention show significant positive behavioral responses when rats have received a subcutaneous administration of MEP within the dosage range 1 ng-1 μg per animal. MEPs of the invention show a memory enhancing potency 10-100 times that of AVP.

rats = assay: Brightness discrimination test in a radiant Y maze; format: in vivo, rat; conditions: adult rats; oral 20 μg/kg/day for 30 days
Procedure: as §1, §2
Additionally, oral administration of NLPR to adult rats at a dose of 20 μg/kg/day for 30 days produced a positive brightness discrimination assay.

adult rats [2] = conditions: cited from earlier work

Molecule | Passive Avoidance adult rat effective dose (adult rats [1]) | brightness discrimination assay (rats) | acquisition of active or passive avoidance responses (adult rats [2]) | extinction of active or passive avoidance responses (adult rats [2])
CC(C)C[C@H](NC(=O)[C@@H](N)CC(N)=O)C(=O)N1CCC[C@H]1C(=O)N[C@@H](CCCNC(=N)N)C(=O)O [NLPR] (H-NLPR-OH) | 3-10 ng/200 g body wt. | positive | – | –
ZN(Hme)PR: pyroglutamyl-Asn-Hme-Pro-Arg; Hme = Homomethionine (Smethylcysteine) ([pGlu]N[Hme]PR; reading uncertain; also: printed as ZN(Hme)PR) | 10-100 ng/200 g body wt. | – | – | –
NC(=O)CC[C@@H]1NC(=O)[C@H](Cc2ccccc2)NC(=O)[C@H](Cc2ccc(O)cc2)NC(=O)[C@@H](N)CSSC[C@@H](C(=O)N2CCC[C@H]2C(=O)N[C@@H](CCCN=C(N)N)C(=O)NCC(N)=O)NC(=O)[C@H](CC(N)=O)NC1=O [AVP, arginine vasopressin] | 300-1000 ng/200 g body wt. | – | no effect | retarded
CC(C)C[C@H](NC(=O)[C@H](CC(N)=O)NC(=O)[C@@H]1CCC(=O)N1)C(=O)N1CCC[C@H]1C(=O)N[C@@H](CCCNC(=N)N)C(=O)O [ZNLPR] ([pGlu]NLPR-OH) | 10 ng/200 g body wt. | – | – | –
CC(=O)N[C@@H](CC(N)=O)C(=O)N[C@@H](CC(C)C)C(=O)N1CCC[C@H]1C(=O)N[C@@H](CCCNC(=N)N)C(N)=O [AcNLPR--NH2] (Ac-NLPR-NH2) | 3-10 ng/200 g body wt. | – | – | –
